Calls of active or inactive are those of the source. Cut-off read from the data, not from the text of the source: active = IC50 below about 71 µM; inactive = the rest.
Tested on: S. cerevisiae tim10 strain, luminescence counterscreen
Assay: signal inhibition in TIM10 yeast counter-screen, dose response, counter-screen for tim23-1 inhibitor project, luminescence, S. cerevisiae, uHTS hits (AID 504672);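 note: yeast grew roughly 22 hours at 25 °C before the luminescence read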

Compound | IC50
Cc1ccc(-c2nnc(N3CCC(C)CC3)c3ccccc23)cc1 | 11.9 µM
Cc1nc2nc(-c3cccs3)[nH]c2cc1Br | 14.9 µM
Cc1ccc2nc(N3C(=O)CNC3=S)sc2c1 | 21.1 µM
CC(=O)Nc1ncnc2c1c(-c1ccc(Cl)cc1)nn2C(C)(C)C | 9.62 µM
CCN(CC)c1ccc(C(=O)Nc2cccc(F)c2)cc1 | 5.64 µM
Clc1nssc1=Nc1nncs1 | 2.6 µM
N#C/C(N)=C(/C#N)N=Cc1cccc(Cl)c1 | 14.2 µM
CCOc1ccc(N=C(C)C2=C(O)c3ccccc3C2=O)cc1 | 26.4 µM
CCN(CC)S(=O)(=O)c1ccc(C(=O)OCn2nnc3ccccc3c2=O)cc1 | > 100 µM (inactive)
O=C(Nc1ccc(-c2cn3ccccc3n2)cc1)c1cccs1 | > 100 µM (inactive)
Fc1ccccc1-c1cc2cc3c(cc2cn1)OCO3 | 25 µM
CC(C)(C)c1ccc(OCC(=O)NCc2ccco2)c(Br)c1 | 12.2 µM
Cc1nc2scc(C)n2c(=O)c1S(=O)(=O)Nc1ccc(OC(F)(F)F)cc1 | 49.3 µM
C=CCNC(=O)c1ccc2c3n(nc2c1)-c1ccc(Cl)cc1CO3 | 8.34 µM
Cc1ccc(Nc2cc(C)c3ccc(O)cc3n2)cc1C | 27.2 µM
N=c1c2c(-c3ccccc3)c(-c3ccccc3)n(Cc3ccco3)c2ncn1Cc1ccccc1 | 13.6 µM
CC(C)OC(=O)c1cccnc1SCc1cc(=O)n2ccccc2n1 | 42.4 µM
C/C(=N\Nc1nc2ccccc2s1)c1cccs1 | 17 µM
CCOC(=O)c1c(N)sc(C(=O)Nc2ccccc2)c1C | 2.25 µM
O=C(N/N=C/c1cc(Br)cc(Br)c1O)c1cccc(N2CCCC2=O)c1 | 4.11 µM
Nc1ccc(/C=C/C(=O)c2cccs2)cc1 | 3.17 µM
O=C1c2ccccc2C(=O)N1c1nc(-c2cccs2)cs1 | 6.52 µM
CN=c1scc(-c2cccs2)n1/N=C/c1ccc(O)c(O)c1O | 11 µM
CCOC(=O)c1cnc(-n2nc(C)cc2C)nc1NCCc1ccccc1 | 8.35 µM
Cc1occc1C(=O)N/N=C/C(Br)=C/c1ccccc1 | 11.5 µM
CCOC(=O)c1c(C)oc2c1c(C(c1cccnc1)N1CCCCC1)c(O)c1ccccc12 (stereo unspecified) | 36.1 µM

Compound | IC50
N#C/C(=C/c1ccc(N2CCOCC2)o1)c1nc2ccccc2[nH]1 | 26.6 µM
O=C(Oc1ccc(=O)n(-c2ccccc2)n1)c1ccc(Cl)cc1 | 34.7 µM
NC(=S)N/N=C/c1coc2ccc(Br)cc2c1=O | 5.78 µM
O=C(Nc1ccccc1N(C(=O)c1ccco1)S(=O)(=O)c1cccs1)c1ccco1 | 19.4 µM
CCCCCCn1c(=O)c(-c2ccccc2)c(O)c2ccccc21 | 11.4 µM
Cc1cc(C(=O)CCl)c(C)n1CCc1ccc(Cl)cc1 | 11 µM
O=C(N/N=C/C=C\c1ccco1)c1cccs1 | 70 µM
N#C/C(=C\c1ccc(Cl)cc1)C(=O)Nc1cccnc1 | 24.3 µM
CC1(C)CC(=O)C=C(c2cccc(Cl)c2O)C1 | 13.1 µM
O=Cc1cnc2ccccc2c1-c1ccccc1 | 9.53 µM
Cc1ccc(-c2nn(-c3ccccc3)cc2NC(=O)CCl)cc1 | 26.7 µM
O=[N+]([O-])c1ccc(N/N=C/c2cccc(O)c2)cc1 | 6.08 µM
COc1ccc(NCc2ccc([N+](=O)[O-])s2)cc1 | 6.42 µM
COc1ccc(NC(=O)C#Cc2ccccc2)cc1 | 6.8 µM
O=C(N/N=C/c1coc2ccc(Cl)cc2c1=O)c1cc(O)cc(O)c1 | 44.8 µM
CC1=CC(C)(C)N(C(=O)c2ccc(F)cc2)c2cc3c(cc21)OCO3 | 3.84 µM
Cc1ccc(NC(=O)c2ccc3c(c2)OCCO3)cc1C | 4.16 µM
Cc1cccc(N2C(=O)c3ccc(Br)cc3C2=O)n1 | 7.58 µM
Cn1cccc1-c1nc2ccc(NC(=O)c3cccs3)cc2[nH]1 | 28.2 µM
Cc1ccc(S(=O)(=O)n2ccc(OC(=O)c3cccs3)n2)cc1 | 8.32 µM
Cc1ccc(NC(=S)NC(=O)C2CC2)cc1Cl | 8.83 µM
Cc1ccc2nc(NC(=O)COC(=O)c3cccnc3)sc2c1 | 6.25 µM
CSc1nnc(C(C)(C)C)c(=O)n1/N=C/c1ccccc1 | 56.6 µM
O=C(Nc1ccc2oc(-c3ccccc3)nc2c1)c1cccnc1 | 10.8 µM
COc1cc2c3c(c1)C(C)=CC(C)(C)N3C(=O)C2=O | 16 µM
O=C(Nc1nc2ccccc2s1)C1CCCN1S(=O)(=O)c1ccc(Cl)cc1 (stereo unspecified) | 49.3 µM

Compound | IC50
O=C(/C=C/c1ccccc1Cl)Nc1ccccc1 | 44.7 µM
CN1C(=O)C(=Cc2ccccc2OS(=O)(=O)c2ccccc2)C(=O)N(C)C1=O | 5.92 µM
O=C(Nc1cc(-c2ccccc2)[nH]n1)c1ccccc1 | 43.3 µM
Cc1cc2cc(CNC(=O)c3ccc(C)c([N+](=O)[O-])c3)ccc2[nH]1 | 31 µM
CCOC(=O)NNc1ccc2nonc2c1[N+](=O)[O-] | 10.3 µM
CCCCn1c(N)c(N(CCC(C)C)C(=O)c2ccc3c(c2)OCO3)c(=O)[nH]c1=O | > 100 µM (inactive)
O=C(Nc1ccc2oc(-c3ccccc3)nc2c1)c1cccs1 | < 0.2 µM
O=C(N/N=C/C(Cl)=C\c1ccccc1)c1cccs1 | 59.1 µM
Cc1ccc(-c2nc3ccccc3[nH]2)s1 | 16.4 µM
Cc1ccc(NC(=O)c2nc(S(=O)(=O)Cc3ccccc3C)ncc2Cl)cc1C | 5.94 µM
Brc1ccc(OCc2nnnn2-c2ccccc2)cc1 | 11 µM
Cc1cc(C)nc(SCC(=O)c2cc3ccccc3oc2=O)n1 | 32.1 µM
Brc1ccc(-n2cnc(-c3ccccc3)c2)cc1 | 17.4 µM
O=C1/C(=C/c2ccncc2)SC(=S)N1C1CCCCC1 | 27.4 µM
O=C(N/N=C/c1coc2ccc(Cl)cc2c1=O)c1ccncc1 | 87.1 µM
CC(C)c1nc(NCCO)c(C#N)c2c1CCCC2 | 18.5 µM
O=C(Nc1ccc(-c2ccc(N3CCCCC3)nn2)cc1)c1ccco1 | 5.82 µM
O=c1oc(Cl)c(Cl)c2ccccc12 | 20.1 µM
COc1cc2c3c(c1)C(C)CC(C)(C)N3C(=O)C2=O (stereo unspecified) | 13.8 µM
CC(C)(C)c1csc(NC(=O)c2ccc(Br)o2)n1 | 16.7 µM
Cc1cc(Nc2ccccc2)nn1C(=O)c1ccccc1 | 11.3 µM
CCOC(=O)c1c(-c2ccccc2)oc2ccc(O)cc12 | 10.2 µM
COCCn1c(C)cc(C(=O)COC(=O)c2ccc([N+](=O)[O-])o2)c1C | 8.28 µM
N#C/C(=C\c1ccc(O)cc1)c1nc2ccccc2o1 | 17.6 µM
O=C(Nc1cccc(Br)c1)C1CCCC1 | 14.1 µM
COc1ccc(C(=O)COC(=O)c2cncc(Br)c2)cc1 | 15.5 µM

Compound | IC50
C=CCn1c(SCc2cc(=O)n3ccsc3n2)nc2cc(Cl)ccc2c1=O | 9.66 µM
CCOc1nc2ccccc2cc1C=O | 1.69 µM
CCCc1nc2c(c(=O)c3ccccc3n2C)c(=O)n1C1CCCCCC1 | 23.2 µM
O=C(Nc1ccc2nc(-c3ccc(Br)o3)[nH]c2c1)c1ccco1 | 6.75 µM
O=C(NCc1cccnc1)/C(=C\c1ccc(-c2ccc(Br)cc2)o1)S(=O)(=O)c1ccccc1 | 5.72 µM
O=C(CSc1cccc[n+]1[O-])CSc1cccc[n+]1[O-] | 6.94 µM
Cc1[nH]c2ccccc2c1C(=O)/C=C/c1ccccc1 | 12.9 µM
COc1cccc(Nc2nc3ccc(OC)cc3s2)c1 | 11.2 µM
COc1cccc(Nc2nc(-c3ccccc3)nc3ccccc23)c1 | 7.48 µM
CCCCc1cc(O)c(CCCC)c(O)c1 | 1.21 µM
C(=C\c1ccccc1)/C=N/Nc1nc2ccccc2[nH]1 | 38.7 µM
CC1CCc2c(sc3nc(C(C)(C)C)nc(N4CCN(C(=O)CCl)CC4)c23)C1 (stereo unspecified) | 23.3 µM
COc1ccc(N2CCC(CNC(=S)Nc3ccc(C)cc3C)C2)cc1 (stereo unspecified) | 18.1 µM
CCCC(=O)NC(c1ccc(C(C)C)cc1)c1ccc2cccnc2c1O (stereo unspecified) | 7.76 µM
CCOC(=O)c1cccnc1SCc1cc(=O)n2ccccc2n1 | > 100 µM (inactive)
O=C(CCl)Nc1cccc(-c2cnc3ccccc3n2)c1 | 14.6 µM
Nc1cc([N+](=O)[O-])cc2oc(-c3ccccc3)cc12 | 23.9 µM
c1ccc(-c2ncc(-c3ccn[nH]3)s2)cc1 | 3.88 µM
O=c1oc(-c2ccc(Br)o2)nc2ccccc12 | 8.59 µM
CC(=O)Nc1cccc(-c2cc(-c3c(Cl)cccc3Cl)no2)c1 | 8.63 µM
CC(C)(C)c1ccc(Oc2ccc(N)cc2)cc1 | 13.7 µM
O=[N+]([O-])c1ccccc1S(=O)(=O)Nc1cccc2cccnc12 | 13.9 µM
CCOC(=O)Nc1ccc2c(c1)Nc1ccccc1S2 | 12.7 µM
O=C1c2ccccc2-c2n[nH]c3cccc1c23 | 20.2 µM
COc1ccc(C2=NNC(c3cccs3)=Nc3ccc(OC)cc32)cc1 | 9.29 µM
C/C(=N\Nc1ccc([N+](=O)[O-])cc1)c1ccc(O)cc1 | 2.32 µM

Compound | IC50
Nc1ccc2nc(SCc3ccccc3F)sc2c1 | 20.6 µM
Cc1csc2nc(O)c(C(=O)NC3CCCCC3)c(=O)n12 | 9.27 µM
Cn1c(=O)c(C(=O)Nc2ncccn2)c(O)c2ccccc21 | 4.78 µM
O=C(Nc1ccc(-c2cn3ccccc3n2)cc1)c1ccco1 | 17.5 µM
COC(=O)c1ccc(NC(=O)c2nc(S(=O)(=O)Cc3cccc(C)c3)ncc2Cl)cc1 | 2.01 µM
Cc1csc2nc(O)c(C(=O)NCCC3=CCCCC3)c(=O)n12 | 3.43 µM
O=C(/C(=C/O)N=Nc1ccccc1)c1ccco1 | 11 µM
CSc1nnc(C)c(/C=C/NOCc2ccc(Cl)cc2)n1 | 5.56 µM
O=C(COC(=O)CC1CCCC1)Nc1ccc(Cl)cc1 | 7.89 µM
Cc1ccc(C(=O)Nc2nc(C(C)(C)C)cs2)s1 | 20.9 µM
CCc1cccc2c(C(=O)CCl)c[nH]c12 | 25.1 µM
CC1(S(=O)(=O)O)CC(=O)c2ccccc2C1=O (stereo unspecified) | 7.14 µM
Cc1nc2ccc(C(C(F)(F)F)(C(F)(F)F)C(F)(F)F)cc2[nH]1 | 19.9 µM
Cc1ccccc1[C@@]1(C)ON(c2ccccc2C(F)(F)F)C1=O | 3.74 µM
N=C1/C(=C\c2coc3ccccc3c2=O)C(=O)N=C2SC=CN12 | 7.35 µM
O=C1OC(c2ccccc2)=N/C1=C\C=C\c1ccco1 | > 100 µM (inactive)
Cc1ccccc1C(=O)Oc1cccc2c(O)cccc12 | 13.8 µM
CC1CCc2c(c3ccccc3n2C(=O)CCl)C1 (stereo unspecified) | 5.12 µM
COc1cccc(C(=O)Nc2ccccc2)c1 | 24.4 µM
COC(=O)N/N=C/c1ccc(-c2cc(Cl)cc(Cl)c2)o1 | 18 µM
COc1cc(/C=C/[N+](=O)[O-])ccc1OC(=O)c1cc2ccccc2oc1=O | 3.42 µM
O=C(Nc1ccc(OC(F)(F)F)cc1)N1CCN(c2ccnc3cc(Cl)ccc23)CC1 | 10.2 µM
